According to patent US10143667B2, “Ceramide-like function imparting agent” (KAO CORPORATION, priority 2013, dated 2018):

Tests used:
[1] = Evaluation of lamellar-formation ability (X-ray diffraction); format: physicochemical; design: key to Evaluation of X-ray diffraction measurement: wide-angle X-ray measurement: A: diffraction peaks originating from crystals of stearic acid and cholesterol disappeared and only the peaks originating from a lamellar structure were observed near 2θ=22°; B: diffraction peaks originating from crystals of stearic acid and cholesterol remained but peaks originating approximately from a lamellar structure were observed; C: peaks originating from a lamellar structure were observed only partly; D: no peaks originating from a lamellar structure were observed; key to Evaluation of X-ray diffraction measurement: small-angle X-ray measurement: E: diffraction peaks originating from a periodic structure of lamellar structure were observed; F: no diffraction peaks were observed; conditions: equimolar mixture of stearic acid, cholesterol and sample, 30 wt % ion-exchange water
Procedure: Evaluation of lamellar-formation ability was conducted according to the method by Mizushima et al. (Lipids, 30(4), 327-332 (1995)).
Each of stearic acid and cholesterol, used as representatives of fatty acids that are horny layer intercellular lipids, as well as a sample to be evaluated was weighed to give an equimolar mixture, and an ion-exchange water was added thereto in an amount of 30 wt % of the weight of the lipids. The mixture was heat-melted and then cooled to give an evaluation sample.
Wide-angle X-ray diffraction apparatus ((PANalytical) X' Pert MRD High Resolution X-ray Diffractometer)
Small-angle X-ray scattering apparatus ((NANO Viewer manufactured by RIGAKU Corporation), Small-angle X-ray scattering)
In the case where the wide-angle X-ray diffraction apparatus was used, sampling for measurement was conducted by finely grinding a sample in an agate mortar and packing the sample in a measurement cell to give a flat surface. In the case of small-angle X-ray scattering apparatus, the sample was packed in a cell made of stainless steel having grid openings of approximately 4 mm in width and 2 mm in depth.
Conditions for wide-angle X-ray diffraction measurement: measurement cell: a cell for exclusive use made of stainless steel, applied voltage: 45 kV, applied current: 40 mA.
measured range: 2θ=3° to 45°, measurement speed: 2θ=1°/min.
Conditions for small-angle X-ray measurement: measurement cell: a sample that was packed in a stainless steel holder having grid openings was measured.
applied voltage: […], applied current: 30 mA, X-ray irradiation period: 30 minutes, measured at a camera length of from 450 to 650 mm using a detector with an imaging plate.
In a wide-angle X-ray diffraction measurement, a symbol A was assigned to a sample wherein diffraction peaks originating from crystals of stearic acid and cholesterol disappeared and only the peaks originating from a lamellar structure were observed near 2θ=22°, a symbol B was assigned to a sample wherein diffraction peaks originating from crystals of stearic acid and cholesterol remained but peaks originating approximately from a lamellar structure were observed, a symbol C was assigned to a sample wherein peaks originating from a lamellar structure were observed only partly, and a symbol D was assigned to a sample wherein no peaks originating from a lamellar structure were observed. In addition, in a small-angle X-ray measurement, a symbol E was assigned to a sample wherein diffraction peaks originating from a periodic structure of lamellar structure were observed, and a symbol F was assigned to a sample wherein no diffraction peaks were observed.

[2] = Evaluation as to occlusion (TEWL-inhibition), lipid-impregnated filter paper; conditions: filter paper immersed in 10% lipid mixture solution; average of three measurements; versus solvent-only filter
Procedure: Evaluation as to occlusion was conducted according to the method by Akasaki et al. (Fragrance Journal, extra edition, No. 13, p. 65, 1994).
Each of stearic acid and cholesterol, used as representatives of fatty acids that are horny layer intercellular lipids, and a sample to be evaluated was weighed into a screw tube, and a mixed liquid of chloroform and methanol (9:1 by volume) was used to give a 10% solution of the lipid mixture (w/v). A filter paper ([…] Co. Ltd., No. 5C, ϕ=21 mm) was immersed in the 10% solution, and then taken out, dried at room temperature, heated at 90° C. for one hour, hydrated by a water sprayer, heat-treated at 60° C. for 12 hours, and then cooled. The filter thus prepared was set in a vial charged with ion-exchange water (20 ml), and the weight of the filter was measured over time to calculate an amount of TEWL. As a control, was measured an amount of TEWL of a filter which had been immersed only in a mixed liquid of chloroform and methanol (9:1 by volume). A control rate of TEWL (%) was calculated according to the following equation: Control rate of TEWL (%)=(1−amount of TEWL of evaluated sample/amount of TEWL of control)×100. 2) Results

[3] = Measurement on bonded water content (differential scan calorimetric analysis); format: physicochemical; conditions: equimolar mixture of stearic acid, cholesterol and sample plus ion-exchange water; DSC
Procedure: Measurement on bonded water content was conducted according to the method by Akasaki et al. (Fragrance Journal, extra edition, No. 13, pp. 66-67, 1994).
1) Differential scan calorimetric analyzer: (DSC6100 (SII Seiko Instruments Inc.)).
A sample prepared by adding ion-exchange water to an equimolar mixture of stearic acid and cholesterol, both used as representatives of fatty acids that are a horny layer intercellular lipid, and a sample to be evaluated, was encapsulated in a cell, and the water content thereof was measured. The temperature of the sample was raised from −40° C. at a rate of 1° C./minute to obtain an enthalpy change accompanied by the temperature raise. A bonded water content was determined from the relation between a water content of a lipid mixture (an amount of moisture absorbed) and a change of peak of enthalpy (melting heat), and an enthalpy change was obtained from the point 0.

| Compound | Evaluation of X-ray diffraction measurement: small-angle X-ray measurement [1] | Evaluation of X-ray diffraction measurement: wide-angle X-ray measurement [1] | TEWL inhibition rate [2] [%] | Bonded water content [3] [% by mass] |
| --- | --- | --- | --- | --- |
| 2-(hexadecyl/octadecyl)-N,N,-bis(2-hydroxyethyl)succinamide [Compound 2] | E | B |  |  |
| CCCCCCCCCCCCCCCC(=O)NCCO [Comparative Compound 1, N-(2-hydroxyethyl)palmitamide, reference compound] | F | D |  |  |
| CCCCCCCCCCCCC/C=C/CC(CC(=O)NCCCCCCCCCCCCCCCC)C(=O)NCCCCCCCCCCCCCCCC (centres unmarked) [Comparative Compound 3, (E)-2-(hexadeca-2-en-1-yl)-N,N,-dihexadecylsuccinamide, reference compound] | F | D |  |  |
| CCCCCCCCCCCCCCCCOCC(O)CN(CCO)C(=O)CCCCCCCCCCCCCCC (centres unmarked) [Sphingolipid E, reference compound] | E | A | 32.8 | 7.1 |
| (E)-2-(eicosa/docosa/tetracosa)-2-en-1-yl)-N,N,-bis(2-hydroxyethyl)succinamide [Compound 5] | E | A |  |  |
| (E)-2-(hexadeca/octadeca)-2-en-1-yl)-N,N,-bis(1-hydroxypropan-2-yl)succinamide [Compound 4] | E | C |  |  |
| (E)-2-(hexadeca/octadeca)-2-en-1-yl)-N,N,-bis(2-(2-hydroxy-ethoxy)ethyl)succinamide [Comparative Compound 2, reference compound] | F | D | 24.2 |  |
| (E)-2-(hexadeca/octadeca)-2-en-1-yl)-N,N,-bis(2-hydroxyethyl)succinamide [Compound 1] | E | B |  |  |
| (E)-2-(hexadeca/octadeca)-2-en-1-yl)-N-hexadecyl-N-(2-hydroxyethyl)succinamide [Comparative compound 4] |  |  | 27.4 |  |
| (E)-N,N,-bis(1,3-dihydroxy-2-(hydroxymethyl)propan-2-yl)-2-((hexadeca/octadeca)-2-en-1-yl)-succinamide [Compound 7] | E | A |  |  |
| (E)-N,N,-bis(1,3-dihydroxy-2-methylpropan-2-yl)-2-((hexadeca/octadeca)-2-en-1-yl)-succinamide [Compound 6] | E | B |  |  |
| (E)-N,N,-bis(3-hydroxypropyl)-2-((hexadeca/octadeca)-2-en-1-yl)-succinamide [Compound 3] | E | C |  |  |
